The source of these data is patent US20120142646A1, “Novel Compounds 621” (priority 2006, published 2012).

The target in the assay is T1, Adrenergic β2 (Homo sapiens, UniProt P07550).
T1 construct: Adherent H292 cells were removed from tissue culture flasks; endogenous in cells; host or cells: H292 cells
T1 sequence (P07550 whole entry): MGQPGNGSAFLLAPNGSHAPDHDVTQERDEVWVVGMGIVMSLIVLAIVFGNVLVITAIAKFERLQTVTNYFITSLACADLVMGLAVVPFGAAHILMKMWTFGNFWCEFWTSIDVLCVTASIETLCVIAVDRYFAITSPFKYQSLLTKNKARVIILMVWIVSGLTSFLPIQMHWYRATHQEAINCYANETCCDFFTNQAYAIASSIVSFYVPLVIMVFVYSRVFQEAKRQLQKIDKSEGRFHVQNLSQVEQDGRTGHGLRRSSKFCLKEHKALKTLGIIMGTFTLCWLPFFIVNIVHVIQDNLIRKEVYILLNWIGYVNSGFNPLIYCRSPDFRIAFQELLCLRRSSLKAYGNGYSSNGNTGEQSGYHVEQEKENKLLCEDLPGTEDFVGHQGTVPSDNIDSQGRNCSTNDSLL
Kind of assay: Adrenergic β2 mediated cAMP production in H292 cells (AlphaScreen cAMP detection). The assay is classed as cell-based. Further details: key to β2 Int Act: fraction of formoterol maximum activity (formoterol = 1). The conditions noted are these: Intrinsic Activity as a fraction relative to the maximum activity determined for formoterol. On the procedure: Adrenergic β2 Mediated cAMP Production
H292 cells were grown in 225 cm2 flasks incubator at 37° C., 5% CO2 in RPMI medium containing, 10% (v/v) FBS (foetal bovine serum) and 2 mM L-glutamine.
Adherent H292 cells were removed from tissue culture flasks by treatment with Accutase™ cell detachment solution for 15 minutes. Flasks were incubated for 15 minutes in a humidified incubator at 37° C., 5% CO2. Detached cells were re-suspended in RPMI media (containing 10% (v/v) FBS and 2 mM L-glutamine) at 1×10^6 cells per mL. 10000 cells in 100 μL were added to each well of a tissue-culture-treated 96-well plate and the cells incubated overnight in a humidified incubator at 37° C., 5% CO2. The culture media was removed and cells were washed twice with 100 μL assay buffer and replaced with 50 μL assay buffer (HBSS solution containing 10 mM HEPES pH7.4 and 5 mM glucose). Cells were rested at room temperature for 20 minutes after which time 25 μL of rolipram (1.2 mM made up in assay buffer containing 2.4% (v/v) dimethylsulphoxide) was added. Cells were incubated with rolipram for 10 minutes after which time test compounds were added and the cells were incubated for 60 minutes at room temperature. The final rolipram concentration in the assay was 300 μM and final vehicle concentration was 1.6% (v/v) dimethylsulphoxide. The reaction was stopped by removing supernatants, washing once with 100 μL assay buffer and replacing with 50 μL lysis buffer. The cell monolayer was frozen at −80° C. for 30 minutes (or overnight).
AlphaScreen™ cAMP Detection
The concentration of cAMP (cyclic adenosine monophosphate) in the cell lysate was determined using AlphaScreen™ methodology. The frozen cell plate was thawed for 20 minutes on a plate shaker then 10 μL of the cell lysate was transferred to a 96-well white plate. 40 μL of mixed AlphaScreen™ detection beads pre-incubated with biotinylated cAMP, was added to each well and the plate incubated at room temperature for 10 hours in the dark. The AlphaScreen™ signal was measured using an EnVision spectrophotometer (Perkin-Elmer Inc.) with the recommended manufacturer's settings. cAMP concentrations were determined by reference to a calibration curve determined in the same experiment using standard cAMP concentrations. Concentration response curves for agonists were constructed and data was fitted to a four parameter logistic equation to determine both the pEC50 and Intrinsic Activity. Intrinsic Activity was expressed as a fraction relative to the maximum activity determined for formoterol in each experiment.
A general note: Changes in cAMP serve as a functional read-out for many G protein-coupled receptors.
In the case of `CCCC[C@@H](C)N(CCNCCc1ccc(O)c2c1OCC(=O)N2)C(=O)CCNCCc1cccc(Cl)c1` [Example 44, (R)-3-(3-Chlorophenethylamino)-N-(hexan-2-yl)-N-(2-(2-(5-hydroxy-3-oxo-3,4-dihydro-2H-benzo[b][1,4]oxazin-8-yl)ethylamino)ethyl)propanamide bis(trifluoroacetate)], the “β2 Int Act” value was determined as 0.89. For `CCCC[C@@H](C)N(CCNCCc1ccc(O)c2c1OCC(=O)N2)C(=O)CCNCCc1ccc(Cl)cc1` [Example 45, (R)-3-(4-Chlorophenethylamino)-N-(hexan-2-yl)-N-(2-(2-(5-hydroxy-3-oxo-3,4-dihydro-2H-benzo[b][1,4]oxazin-8-yl)ethylamino)ethyl)propanamide bis(trifluoroacetate)] the value was 0.89. Take `CCCC[C@@H](C)N(CCNCCc1ccc(O)c2c1OCC(=O)N2)C(=O)CCNCCc1ccccc1Cl` [Example 46, (R)-3-(2-Chlorophenethylamino)-N-(hexan-2-yl)-N-(2-(2-(5-hydroxy-3-oxo-3,4-dihydro-2H-benzo[b][1,4]oxazin-8-yl)ethylamino)ethyl)propanamide bis(trifluoroacetate)]: the “β2 Int Act” value is 0.89. Take `CCCC[C@@H](C)N(CCNCCc1ccc(O)c2c1OCC(=O)N2)C(=O)CCNCCc1ccc(F)c(C)c1` [Example 47, (R)-3-(4-Fluoro-3-methylphenethylamino)-N-(hexan-2-yl)-N-(2-(2-(5-hydroxy-3-oxo-3,4-dihydro-2H-benzo[b][1,4]oxazin-8-yl)ethylamino)ethyl)propanamide bis(trifluoroacetate)]: the “β2 Int Act” value is reported as 0.89. `CCCC[C@@H](C)N(CCNCCc1ccc(O)c2c1OCC(=O)N2)C(=O)CCNCCc1ccc(F)c(Cl)c1` [Example 48, (R)-3-(3-Chloro-4-fluorophenethylamino)-N-(hexan-2-yl)-N-(2-(2-(5-hydroxy-3-oxo-3,4-dihydro-2H-benzo[b][1,4]oxazin-8-yl)ethylamino)ethyl)propanamide bis(trifluoroacetate)]: the “β2 Int Act” value is given as 0.91. For `CCCC[C@@H](C)N(CCNCCc1ccc(O)c2c1OCC(=O)N2)C(=O)CCNCCc1cc(F)cc(Cl)c1` [Example 50, (R)-3-(3-Chloro-5-fluorophenethylamino)-N-(hexan-2-yl)-N-(2-(2-(5-hydroxy-3-oxo-3,4-dihydro-2H-benzo[b][1,4]oxazin-8-yl)ethylamino)ethyl)propanamide bis(trifluoroacetate)], the “β2 Int Act” value is 0.89. On to `CCCC[C@@H](C)N(CCNCCc1ccc(O)c2c1OCC(=O)N2)C(=O)CCNCCc1cc(F)cc(F)c1` [Example 51, (R)-3-(3,5-Difluorophenethylamino)-N-(hexan-2-yl)-N-(2-(2-(5-hydroxy-3-oxo-3,4-dihydro-2H-benzo[b][1,4]oxazin-8-yl)ethylamino)ethyl)propanamide bis(trifluoroacetate)], for which the “β2 Int Act” value came out at 0.94.

On to `CCCC[C@@H](C)N(CCNCCc1ccc(O)c2c1OCC(=O)N2)C(=O)CCNCCc1ccc(F)c(F)c1` [Example 52, (R)-3-(3,4-Difluorophenethylamino)-N-(hexan-2-yl)-N-(2-(2-(5-hydroxy-3-oxo-3,4-dihydro-2H-benzo[b][1,4]oxazin-8-yl)ethylamino)ethyl)propanamide bis(trifluoroacetate)], for which the “β2 Int Act” value is 0.95. As for `CCCC[C@@H](C)N(CCNCCc1ccc(O)c2c1OCC(=O)N2)C(=O)CCNCCc1cccc(F)c1F` [Example 53, (R)-3-(2,3-Difluorophenethylamino)-N-(hexan-2-yl)-N-(2-(2-(5-hydroxy-3-oxo-3,4-dihydro-2H-benzo[b][1,4]oxazin-8-yl)ethylamino)ethyl)propanamide bis(trifluoroacetate)], the “β2 Int Act” value was 0.99. `CCCC[C@@H](C)N(CCNCCc1ccc(O)c2c1OCC(=O)N2)C(=O)CCNCCc1cc(F)ccc1F` [Example 54, (R)-3-(2,5-Difluorophenethylamino)-N-(hexan-2-yl)-N-(2-(2-(5-hydroxy-3-oxo-3,4-dihydro-2H-benzo[b][1,4]oxazin-8-yl)ethylamino)ethyl)propanamide bis(trifluoroacetate)]: the “β2 Int Act” value stood at 0.96.
